These results are taken from the supplement of paper PMC12613149.

The nature of data set [1]: collision cross section (TIMS, N2 drift gas) of the primary ion; higher = larger gas-phase ion size. The protocol: (§1)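 Reference mixture of environmental contaminants analysed by RP-LC (BEH C18, 50 °C; ESI+ with water/MeOH plus formic acid and ammonium formate, ESI- with ammonium bicarbonate) coupled to a timsTOF Pro 2 with trapped ion mobility in nitrogen (ramp/accumulation 100 ms). CCS was calibrated with Agilent tune mix (CCS compendium) and averaged over five injections at 0.5-500 ng/mL. The table reports the lowest-CCS (putative monomer) peak; retention times are on the same gradient.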

The nature of data set [2]: reversed-phase LC retention time (C18, 15 min MeOH gradient); higher = more hydrophobic / later elution. Here is the method: as §1
[3] abbreviates: ionization mode: ESI+, ion species: [M+H]+.
The mark [4] stands for this setting: ionization mode: ESI-, ion species: [M-H]-.

In data set [1] (setting [3]), `Nc1ccc(Cc2ccc(N)cc2)cc1` [4,4'-Methylenedianiline] showed a collision cross section of 162.72 Å². For the same molecule, the “reversed-phase LC retention time” value in data set [2] (setting [3]) amounted to 5.68 min.
In turn, `Nc1ccc(Oc2ccc(N)cc2)cc1` [4,4'-Oxydianiline] yielded a collision cross section in data set [1] (setting [3]) of 159.82 Å². The “reversed-phase LC retention time” value in data set [2] (setting [3]) stood at 4.06 min.
The corresponding values for `Nc1ccc(Sc2ccc(N)cc2)cc1` [4,4'-Thiodianiline] are 164.43 Å² and 9.19 min.
Turning to `CC(=O)CCc1ccc(O)cc1` [4-(4-Hydroxyphenyl)butan-2-one], the collision cross section came to 132.84 Å² in data set [1] (setting [3]) and 135.07 Å² in data set [1] (setting [4]). For the same molecule, the “reversed-phase LC retention time” value worked out at 11.7 min in data set [2] (setting [3]) and 11.9 min in data set [2] (setting [4]).
In data set [1] (setting [3]), `Cc1cc(N)c2ccccc2n1` [4-Amino-2-methylquinoline] had a collision cross section of 128.9 Å². The “reversed-phase LC retention time” value in data set [2] (setting [3]) is 6.89 min.
With `Nc1cnn(-c2ccccc2)c(=O)c1Cl` [4-Amino-5-chloro-1-phenyl-6-pyridazone], the collision cross section was determined as 143.41 Å² in data set [1] (setting [3]) and 141.68 Å² in data set [1] (setting [4]). Also, the “reversed-phase LC retention time” value was 9.16 min in data set [2] (setting [3]) and 9.26 min in data set [2] (setting [4]).
For `CN(C)S(=O)(=O)c1ccc(N)cc1` [4-Amino-N,N-dimethylbenzenesulfonamide], the figures for the collision cross section in data set [1] (setting [3]) and in data set [1] (setting [4]) were 138.47 Å² and 137.21 Å², respectively. Moreover, the “reversed-phase LC retention time” value in data set [2] (setting [3]) was 7.89 min; in data set [2] (setting [4]) it was 7.97 min.
In data set [1] (setting [3]), `Cc1c(N)c(=O)n(-c2ccccc2)n1C` [4-Aminoantipyrine] had a collision cross section of 142.4 Å². Further, the “reversed-phase LC retention time” value in data set [2] (setting [3]) was 7.19 min.
For `C[C@]12CCC(=O)C=C1CC[C@@H]1[C@@H]2[C@@H](O)C[C@]2(C)C(=O)CC[C@@H]12` [4-Androsten-11beta-ol-3,17-dione] the same measures were 174.44 Å² and 12.8 min.
In turn, `C[C@]12CCC(=O)C=C1CC[C@@H]1[C@@H]2CC[C@]2(C)C(=O)CC[C@@H]12` [4-Androstene-3,17-dione] came in with a collision cross section in data set [1] (setting [3]) of 172.73 Å². The “reversed-phase LC retention time” value in data set [2] (setting [3]) came out at 13.9 min.
As for `COc1cc(Cl)c(OC)cc1N` [4-Chloro-2,5-dimethoxyaniline], the collision cross section in data set [1] (setting [3]) was found to be 143.89 Å². For the same molecule, the “reversed-phase LC retention time” value in data set [2] (setting [3]) was 10.3 min.
For `Nc1ccc(Cl)cc1` [4-Chloroaniline] the same measures were 114.68 Å² and 8.59 min.
`CC(C)(c1ccccc1)c1ccc(O)cc1` [4-Cumylphenol] displayed a collision cross section in data set [1] (setting [4]) of 156.38 Å². Further, the “reversed-phase LC retention time” value in data set [2] (setting [4]) came to 15.7 min.
For the molecule `Cc1c(C=O)c(=O)n(-c2ccccc2)n1C` [4-Formyl-antipyrine], the collision cross section in data set [1] (setting [3]) is given as 144.44 Å². The “reversed-phase LC retention time” value in data set [2] (setting [3]) came out at 7.67 min.
For `CC1(C)CC(O)CC(C)(C)N1CCO` [4-Hydroxy-1-(2-hydroxyethyl)-2,2,6,6-tetramethylpiperidine] the same measures were 143.1 Å² and 2.23 min.
`Oc1c(Cl)cc(-c2ccc(Cl)cc2)cc1Cl` [4-Hydroxy-3,4',5-trichlorobiphenyl]: in data set [1] (setting [4]), the collision cross section is 154.17 Å². Further, the “reversed-phase LC retention time” value in data set [2] (setting [4]) amounted to 15.5 min.
As to `O=C(c1ccccc1)c1ccc(O)cc1` [4-Hydroxybenzophenone], the collision cross section in data set [1] (setting [4]) is on record as 144.47 Å². Besides, the “reversed-phase LC retention time” value in data set [2] (setting [4]) is 12 min.
Molecule `Oc1cccc2[nH]nnc12` [4-Hydroxybenzotriazole] registered a collision cross section in data set [1] (setting [3]) of 123.13 Å². In addition, the “reversed-phase LC retention time” value in data set [2] (setting [3]) amounted to 5.99 min.
Take `Oc1ccnc2ccccc12` [4-Hydroxyquinoline]: the collision cross section was determined as 124.53 Å² in data set [1] (setting [3]) and 122.52 Å² in data set [1] (setting [4]). Moreover, the “reversed-phase LC retention time” value in data set [2] (setting [3]) was found to be 6.72 min; in data set [2] (setting [4]), 6.7 min.
`CC(C)(C)CC(C)(C)c1ccc(O)cc1` [4-tert-Octylphenol] came in with a collision cross section in data set [1] (setting [4]) of 156.39 Å². Also, the “reversed-phase LC retention time” value in data set [2] (setting [4]) is 17.3 min.
For `Nc1cccc2cc(S(=O)(=O)O)ccc12` [5-Aminonaphthalene-2-sulfonic acid] the same measures were 147.46 Å² and 4.88 min.
In the case of `c1ccc2c(c1)[nH]c1ccncc12` [5-Carboline], the results for the collision cross section in data set [1] (setting [3]) and in data set [1] (setting [4]) were 132.8 Å² and 129.23 Å², respectively. Moreover, the “reversed-phase LC retention time” value is 7.64 min in data set [2] (setting [3]) and 11.6 min in data set [2] (setting [4]).
With `Clc1ccc2n[nH]nc2c1` [5-Chlorobenzotriazole], the collision cross section in data set [1] (setting [4]) was 120.9 Å². Also, in data set [2] (setting [4]), the “reversed-phase LC retention time” value is 9.28 min.
